From paper PMC8468439, “Oxazinethione Derivatives as a Precursor to Pyrazolone and Pyrimidine Derivatives: Synthesis, Biological Activities, Molecular Modeling, ADME, and Molecular Dynamics Studies” (Molecules, 2021)
≈ marks a conversion by molar mass, not a printed value.

What was measured:
F. moniliform = experiment: Antimicrobial screening, hole-plate and filter disc; type: cell-based, Fusarium moniliform; conditions: for A (activity): zone width of inhibition, compounds dissolved in 10% acetone
Description: (§1) All investigations were executed at the Biology department, Faculty of Science, Benha University, Egypt. The antimicrobial activities of all the synthesized molecules were determined in vitro, using the hole-plate and filter disc methodologies. The investigated compounds were dissolved in 10% acetone (v/v). The width of the inhibition zone indicated the potency of the antimicrobial activity: (-) no antimicrobial activity, (+) mild activity with the diameter of the zones equal to (0.5–0.7 cm), (++) moderate activity with the diameter of the zones equal to (1.1–1.2 cm), and (+++) marked activity with the diameter of the zones equal to (1.6–1.8 cm).

S. aureus = experiment: Antimicrobial screening, hole-plate and filter disc; type: cell-based, Staphylococcus aureus; set-up: key to A (activity): (-) no activity; (+) mild activity with diameter zone of (0.5–0.7 cm); (++) moderate activity with diameter zone of (1.1–1.2 cm); (+++) marked with diameter zone of (1.6–1.8 cm); conditions: for A (activity): zone width of inhibition, compounds dissolved in 10% acetone
Description: as §1

E. coli = experiment: as above; type: cell-based, Escherichia coli; set-up: key to A (activity): (-) no activity; (+) mild activity with diameter zone of (0.5–0.7 cm); (++) moderate activity with diameter zone of (1.1–1.2 cm); (+++) marked with diameter zone of (1.6–1.8 cm); conditions: for A (activity): zone width of inhibition, compounds dissolved in 10% acetone
Description: as §1

A. flavus = experiment: as above; type: cell-based, Aspergillus flavus; set-up: key to A (activity): (-) no activity; (+) mild activity with diameter zone of (0.5–0.7 cm); (++) moderate activity with diameter zone of (1.1–1.2 cm); (+++) marked with diameter zone of (1.6–1.8 cm); conditions: for A (activity): zone width of inhibition, compounds dissolved in 10% acetone
Description: as §1

[1] = system: Ovcar-3 for ovarian cancer; experiment: SRB cytotoxicity assay; type: cell-based; conditions: Homo sapiens, 72 h, 3 days
Description: (§2) The cells were supplied by the Egyptian Holding Company for Biological Products and Vaccines (VACSERA) and then kept in the tissue culture unit. The growth of the cells was affected in RPMI-1640 medium, supplemented with 10% heat-inactivated FBS, 50 units/mL of penicillin, and […] of streptomycin, and maintained in a humidified atmosphere with 5% carbon dioxide. The cells were maintained as monolayer cultures by serial sub-culturing, with cell culture reagents obtained from Lonza (Basel, Switzerland). The antitumor activities of the complexes were assessed against three cell lines MCF-7 for breast cancer, Ovcar-3 for ovarian cancer, and Hela for cervical cancer. In addition, all the results obtained were compared and validated to the LCC-MK2 normal cell line. In the literature, the sulforhodamine B (SRB) assay method was applied to determine the cytotoxicity, as described in [39]. Exponentially growing cells were collected using 0.25% Trypsin-EDTA and seeded in 96-well plates at 1000–2000 cells/well in RBMI-1640-supplemented medium. The cells were kept in the medium for 24 h and then incubated for 3 days with various concentrations of the copper complexes. Following 3 days of treatment, the cells were fixed with 10% trichloroethanoic acid for 1 h at 4 °C. Wells were stained for 10 min at room temperature with 0.4% SRBC dissolved in 1% acetic acid. The plates were air-dried for 24 h, and the dye was dissolved in Tris-HCl for 5 min with shaking at 1600 rpm. An ELISA microplate reader (ChroMate-4300, FL, USA) was used to assess each well’s optical density (O.D.) at 564 nm. The IC50 values were calculated from a Boltzmann sigmoidal concentration-response curve using the nonlinear regression fitting models (Graph Pad, Prism Version 9).

Hela for cervical cancer = experiment: SRB cytotoxicity assay; type: cell-based; conditions: Homo sapiens, 72 h, 3 days
Description: as §2

LCC-MK2 normal cell line = experiment: SRB cytotoxicity assay; type: cell-based; conditions: 72 h, 3 days
Description: as §2

MCF-7 for breast cancer = experiment: SRB cytotoxicity assay; type: cell-based; conditions: Homo sapiens, MCF7, 72 h, 3 days
Description: as §2

| melting point | SMILES | Mic (minimum inhibitory concentration) (F. moniliform) | A (activity) (F. moniliform) | Mic (minimum inhibitory concentration) (S. aureus) | A (activity) (S. aureus) | A (activity) (E. coli) | A (activity) (A. flavus) | Mic (minimum inhibitory concentration) (E. coli) | IC50 [1] | IC50 (Hela for cervical cancer) | IC50 (LCC-MK2 normal cell line) | IC50 (MCF-7 for breast cancer) | Mic (minimum inhibitory concentration) (A. flavus) |
| --- | --- | --- | --- | --- | --- | --- | --- | --- | --- | --- | --- | --- | --- |
| 98 to 100 °C | N#CC12C(=O)NC(=O)N=C1N=C(CN1C(=O)c3c(Br)c(Br)c(Br)c(Br)c3C1=O)OC2c1ccccc1 (stereo not shown) [Compound 2a] | 125 | + ((+) mild activity with diameter zone of (0.5–0.7 cm)) | 125 | + ((+) mild activity with diameter zone of (0.5–0.7 cm)) | - | - |  |  |  |  |  |  |
|  | N#CC12C(=O)NC(=S)N=C1N=C(CN1C(=O)c3c(Br)c(Br)c(Br)c(Br)c3C1=O)OC2c1ccccc1 (stereo not shown) [Compound 2b] | 125 | + ((+) mild activity with diameter zone of (0.5–0.7 cm)) | 250 | ++ ((++) moderate activity with diameter zone of (1.1–1.2 cm)) | + ((+) mild activity with diameter zone of (0.5–0.7 cm)) | - | 250 | 15.2 µg/mL (≈ 20.1 µM) | 22.8 µg/mL (≈ 30.1 µM) | 89.3 µg/mL (≈ 118 µM) | 13.8 µg/mL (≈ 18.2 µM) |  |
|  | N#CC12C(=N)NN=C1N=C(CN1C(=O)c3c(Br)c(Br)c(Br)c(Br)c3C1=O)OC2c1ccccc1 (stereo not shown) [Compound 3, 2-(tetrabromophalimidmethyl)-6-phenyl-5-yano-1,3-oxazino[4,5-d]-1,2-pyrazole2[H]-3-one] | 125 | + ((+) mild activity with diameter zone of (0.5–0.7 cm)) | 125 | + ((+) mild activity with diameter zone of (0.5–0.7 cm)) | + ((+) mild activity with diameter zone of (0.5–0.7 cm)) | + ((+) mild activity with diameter zone of (0.5–0.7 cm)) | 125 | 14.6 µg/mL (≈ 20.4 µM) | 9.14 µg/mL (≈ 12.8 µM) | 206 µg/mL (≈ 289 µM) | 15.5 µg/mL (≈ 21.7 µM) | 125 |
|  | N#CC12C(=N)NC(=O)N=C1N=C(CN1C(=O)c3c(Br)c(Br)c(Br)c(Br)c3C1=O)OC2c1ccccc1 (stereo not shown) [Compound 4a] | 250 | + ((+) mild activity with diameter zone of (0.5–0.7 cm)) |  | - | + ((+) mild activity with diameter zone of (0.5–0.7 cm)) | +++ ((+++) marked with diameter zone of (1.6–1.8 cm)) | 250 | 15.9 µg/mL (≈ 21.4 µM) | 12.9 µg/mL (≈ 17.4 µM) | 68.9 µg/mL (≈ 92.9 µM) | 21.7 µg/mL (≈ 29.2 µM) | 250 |
|  | N#CC12C(=N)NC(=S)N=C1N=C(CN1C(=O)c3c(Br)c(Br)c(Br)c(Br)c3C1=O)OC2c1ccccc1 (stereo not shown) [Compound 4b] | 125 | + ((+) mild activity with diameter zone of (0.5–0.7 cm)) | 250 | ++ ((++) moderate activity with diameter zone of (1.1–1.2 cm)) | + ((+) mild activity with diameter zone of (0.5–0.7 cm)) | - | 250 | 11.2 µg/mL (≈ 14.8 µM) | 14.8 µg/mL (≈ 19.5 µM) | 170 µg/mL (≈ 225 µM) | 16.6 µg/mL (≈ 21.8 µM) |  |
|  | N#CC12C(=O)NN=C1N=C(CN1C(=O)c3c(Br)c(Br)c(Br)c(Br)c3C1=O)OC2c1ccccc1 (stereo not shown) [Compound 5, 2-(tetrabromophalimidmethyl)-6-phenyl-5-yano-1,3-oxazino[4,5-d]-1,2-pyrazole2[H]-3-imide] | 250 | + ((+) mild activity with diameter zone of (0.5–0.7 cm)) | 250 | ++ ((++) moderate activity with diameter zone of (1.1–1.2 cm)) | ++ ((++) moderate activity with diameter zone of (1.1–1.2 cm)) | +++ ((+++) marked with diameter zone of (1.6–1.8 cm)) | 250 | 10.1 µg/mL (≈ 14.1 µM) | 5.69 µg/mL (≈ 7.96 µM) | 191 µg/mL (≈ 267 µM) | 12.3 µg/mL (≈ 17.2 µM) | 250 |
